# Like-named read-outs stand apart in the source and are kept apart here.
# Details: disulfide bond, 20-membered ring, AgOTf/anisole/TFA, then DMSO/HCl, 50% DMSO-1N HCl, 2 steps
smiles,measurement,setting,value
CC[C@H](C)[C@@H]1NC(=O)[C@@H](NC(C)=O)CSSC[C@@H](C(=O)O)NC(=O)[C@H](CC(C)C)NC(=O)[C@H](Cc2c[nH]cn2)NC(=O)[C@H](CC(=O)O)NC1=O [AcC*IDHLC*],"ring closure, yield after HPLC",from Ac-Cys(Acm)-Ile-Asp-His-Leu-Cys(Acm)-OH,68%
CC(C)C[C@@H]1NC(=O)[C@H](Cc2c[nH]cn2)NC(=O)[C@H](CC(=O)O)NC(=O)[C@H](C)NC(=O)[C@@H](N)CSSC[C@@H](C(=O)O)NC1=O [C*ADHLC*],"ring closure, yield after HPLC",from H-Cys(Acm)-Ala-Asp-His-Leu-Cys(Acm)-OH,59%
CC(C)C[C@@H]1NC(=O)[C@H](Cc2c[nH]cn2)NC(=O)[C@H](CC(=O)O)NC(=O)[C@H](C2CCCCC2)NC(=O)[C@@H](N)CSSC[C@@H](C(=O)O)NC1=O [C*ChgDHLC*],"ring closure, yield after HPLC",from H-Cys(Acm)-Chg-Asp-His-Leu-Cys(Acm)-OH,68%
CC(C)C[C@@H]1NC(=O)[C@H](Cc2c[nH]cn2)NC(=O)[C@H](CCS(C)(=O)=O)NC(=O)[C@H](C2CCCCC2)NC(=O)[C@@H](N)CSSC[C@@H](C(=O)O)NC1=O [C*ChgMet(O2)HLC*],"ring closure, yield after HPLC",from H-Cys(Acm)-Chg-Met(O2)-His-Leu-Cys(Acm)-OH,41%
CC[C@H](C)[C@@H]1NC(=O)[C@H](c2ccccc2)NC(=O)[C@H](CCS(C)(=O)=O)NC(=O)[C@H](C2CCCCC2)NC(=O)[C@@H](N)CSSC[C@@H](C(=O)O)NC1=O [C*ChgMet(O2)PhgIC*],"ring closure, yield after HPLC",from H-Cys(Acm)-Chg-Met(O2)-Phg-Ile-Cys(Acm)-OH,3%
CC(C)C[C@@H]1NC(=O)[C@H](c2ccccc2)NC(=O)[C@H](CCS(C)(=O)=O)NC(=O)[C@H](C2CCCCC2)NC(=O)[C@@H](N)CSSC[C@@H](C(=O)O)NC1=O [C*ChgMet(O2)PhgLC*],"ring closure, yield after HPLC",from H-Cys(Acm)-Chg-Met(O2)-Phg-Leu-Cys(Acm)-OH,4%
CC(C)C[C@@H]1NC(=O)[C@H](c2ccccc2)NC(=O)[C@H](CCS(C)(=O)=O)NC(=O)[C@H](C2CCCCC2)NC(=O)[C@@H](N)CSSC[C@H](C(=O)O)NC1=O [C*ChgMet(O2)PhgLdC*],"ring closure, yield after HPLC",from H-Cys(Acm)-Chg-Met(O2)-Phg-Leu-dCys(Acm)-OH,42%
CC(C)C[C@@H]1NC(=O)[C@@H](Cc2ccccc2)NC(=O)[C@H](CCS(C)(=O)=O)NC(=O)[C@H](C2CCCCC2)NC(=O)[C@@H](N)CSSC[C@@H](C(=O)O)NC1=O [C*ChgMet(O2)dFLC*],"ring closure, yield after HPLC",from H-Cys(Acm)-Chg-Met(O2)-dPhe-Leu-Cys(Acm)-OH,26%
CC(C)C[C@@H]1NC(=O)[C@@H](Cc2c[nH]cn2)NC(=O)[C@H](CCS(C)(=O)=O)NC(=O)[C@H](C2CCCCC2)NC(=O)[C@@H](N)CSSC[C@@H](C(=O)O)NC1=O [C*ChgMet(O2)dHLC*],"ring closure, yield after HPLC",from H-Cys(Acm)-Chg-Met(O2)-dHis-Leu-Cys(Acm)-OH,45%
CC(C)C[C@@H]1NC(=O)[C@@H](c2ccccc2)NC(=O)[C@H](CCS(C)(=O)=O)NC(=O)[C@H](C2CCCCC2)NC(=O)[C@@H](N)CSSC[C@@H](C(=O)O)NC1=O [C*ChgMet(O2)dPhgLC*],"ring closure, yield after HPLC",from H-Cys(Acm)-Chg-Met(O2)-dPhg-Leu-Cys(Acm)-OH,8%
CC(C)C[C@@H]1NC(=O)[C@@H](c2ccccc2)NC(=O)[C@H](CCS(C)(=O)=O)NC(=O)[C@H](C2CCCCC2)NC(=O)[C@@H](N)CSSC[C@H](C(=O)O)NC1=O [C*ChgMet(O2)dPhgLdC*],"ring closure, yield after HPLC",from H-Cys(Acm)-Chg-Met(O2)-dPhg-Leu-dCys(Acm)-OH,40%
CC(C)C[C@@H]1NC(=O)[C@@H](Cc2ccc(O)cc2)NC(=O)[C@H](CCS(C)(=O)=O)NC(=O)[C@H](C2CCCCC2)NC(=O)[C@@H](N)CSSC[C@@H](C(=O)O)NC1=O [C*ChgMet(O2)dYLC*],"ring closure, yield after HPLC",from H-Cys(Acm)-Chg-Met(O2)-dTyr-Leu-Cys(Acm)-OH,37%
CC[C@H](C)[C@@H]1NC(=O)[C@@H](N)CSSC[C@@H](C(=O)O)NC(=O)[C@H](CC(C)C)NC(=O)[C@H](Cc2c[nH]cn2)NC(=O)[C@H](CC(=O)OC)NC1=O [C*ID(OMe)HLC*],"ring closure, yield after HPLC",from H-Cys(Acm)-Ile-Asp(OMe)-His-Leu-Cys(Acm)-OH,34%
CC[C@H](C)[C@@H]1NC(=O)[C@@H](N)CSSC[C@@H](C(=O)OC)NC(=O)[C@H](CC(C)C)NC(=O)[C@H](Cc2c[nH]cn2)NC(=O)[C@H](CC(=O)OC)NC1=O [C*ID(OMe)HLC—OMe*],"ring closure, yield after HPLC",from H-Cys(Acm)-Ile-Asp(OMe)-His-Leu-Cys(Acm)-OMe,34%
CC[C@H](C)[C@@H]1NC(=O)[C@@H](N)CSSC[C@@H](C(=O)O)NC(=O)[C@H](CC(C)C)NC(=O)[C@H](C)NC(=O)[C@H](CC(=O)O)NC1=O [C*IDALC*],"ring closure, yield after HPLC",from H-Cys(Acm)-Ile-Asp-Ala-Leu-Cys(Acm)-OH,52%
CC[C@H](C)[C@@H]1NC(=O)[C@@H](N)CSSC[C@@H](C(=O)O)NC(=O)[C@H](CC(C)C)NC(=O)[C@H](Cc2ccc3ccccc3c2)NC(=O)[C@H](CC(=O)O)NC1=O [C*IDAla(2-Naph)LC*],"ring closure, yield after HPLC",from H-Cys(Acm)-Ile-Asp-Ala(2-Naph)-Leu-Cys(Acm)-OH,38%
CC[C@H](C)[C@@H]1NC(=O)[C@@H](N)CSSC[C@@H](C(=O)O)NC(=O)[C@H](CC(C)C)NC(=O)[C@H](Cc2ccccn2)NC(=O)[C@H](CC(=O)O)NC1=O [C*IDAla(2-Pyr)LC*],"ring closure, yield after HPLC",from H-Cys(Acm)-Ile-Asp-Ala(2-Pyr)-Leu-Cys(Acm)-OH,56%
CC[C@H](C)[C@@H]1NC(=O)[C@@H](N)CSSC[C@@H](C(=O)O)NC(=O)[C@H](CC(C)C)NC(=O)[C@H](CC2CCCCC2)NC(=O)[C@H](CC(=O)O)NC1=O [C*IDChaLC*],"ring closure, yield after HPLC",from H-Cys(Acm)-Ile-Asp-Cha-Leu-Cys(Acm)-OH,34%
CC[C@H](C)[C@@H]1NC(=O)[C@H](Cc2ccccc2)NC(=O)[C@H](CC(=O)O)NC(=O)[C@H]([C@@H](C)CC)NC(=O)[C@@H](N)CSSC[C@@H](C(=O)O)NC1=O [C*IDFIC*],"ring closure, yield after HPLC",from H-Cys(Acm)-Ile-Asp-Phe-Ile-Cys(Acm)-OH,37%
CC[C@H](C)[C@@H]1NC(=O)[C@@H](N)CSSC[C@@H](C(=O)O)NC(=O)[C@H](CC(C)C)NC(=O)[C@H](Cc2ccccc2)NC(=O)[C@H](CC(=O)O)NC1=O [C*IDFLC*],"ring closure, yield after HPLC",from H-Cys(Acm)-Ile-Asp-Phe-Leu-Cys(Acm)-OH,50%
CC[C@H](C)[C@@H]1NC(=O)[C@H](Cc2c[nH]cn2)NC(=O)[C@H](CC(=O)O)NC(=O)[C@H]([C@@H](C)CC)NC(=O)[C@@H](N)CSSC[C@@H](C(=O)O)NC1=O [C*IDHIC*],"ring closure, yield after HPLC",from H-Cys(Acm)-Ile-Asp-His-Ile-Cys(Acm)-OH,50%
CC[C@H](C)[C@@H]1NC(=O)[C@@H](N)CSSC[C@@H](C(=O)O)NC(=O)[C@H](CC(C)C)NC(=O)[C@H](Cc2c[nH]cn2)NC(=O)[C@H](CC(=O)O)NC1=O [C*IDHLC*],"ring closure, yield after HPLC","from H-Cys(Acm)-Ile-Asp-His-Leu-Cys(Acm)-OH, 0.48 mM",73%
CC[C@H](C)[C@@H]1NC(=O)[C@@H](N)CSSC[C@@H](C(N)=O)NC(=O)[C@H](CC(C)C)NC(=O)[C@H](Cc2c[nH]cn2)NC(=O)[C@H](CC(=O)O)NC1=O [C*IDHLC*—NH2],"ring closure, yield after HPLC",from H-Cys(Acm)-Ile-Asp-His-Leu-Cys(Acm)-NH2,58%
CC[C@H](C)[C@@H]1NC(=O)[C@@H](N)CSSC[C@@H](C(=O)OC)NC(=O)[C@H](CC(C)C)NC(=O)[C@H](Cc2c[nH]cn2)NC(=O)[C@H](CC(=O)O)NC1=O [C*IDHLC—OMe*],"ring closure, yield after HPLC",from H-Cys(Acm)-Ile-Asp-His-Leu-Cys(Acm)-OMe,35%
CC[C@H](C)[C@@H]1NC(=O)[C@@H](N)CSSC[C@@H](C(=O)O)NC(=O)[C@H](c2ccccc2)NC(=O)[C@H](Cc2c[nH]cn2)NC(=O)[C@H](CC(=O)O)NC1=O [C*IDHPhgC*],"ring closure, yield after HPLC",from H-Cys(Acm)-Ile-Asp-His-Phg-Cys(Acm)-OH,37%
CC[C@H](C)[C@@H]1NC(=O)[C@@H](N)CSSC[C@@H](C(=O)O)NC(=O)[C@@H](CC(C)C)NC(=O)[C@H](Cc2c[nH]cn2)NC(=O)[C@H](CC(=O)O)NC1=O [C*IDHdLC*],"ring closure, yield after HPLC",from H-Cys(Acm)-Ile-Asp-His-dLeu-Cys(Acm)-OH,51%

# Source: US6511961B1, “Cyclic peptides and medicinal use thereof” (Toray Industries, Inc., priority 1997, dated 2003)
